According to ChEMBL document CHEMBL1131216, “Anhydrolide macrolides. 2. Synthesis and antibacterial activity of 2,3-anhydro-6-O-methyl 11,12-carbazate erythromycin A analogues” (1998):
In brackets after ≈: the same amount, converted by molar mass.

Assays:
Assay type in all cases: functional
[1] = tested on: Staphylococcus aureus; experiment: In vivo antibacterial activity of NCTC-10649 strain of Gram positive bacteria Staphylococcus aureus (95% confidence interval)
[2] = tested on: Streptococcus pneumoniae; experiment: In vivo antibacterial activity of ATCC 6303 strain of Gram positive bacteria Streptococcus pneumoniae
[3] = tested on: Staphylococcus aureus; experiment: In vivo antibacterial activity of NCTC-10649 strain of Gram positive bacteria Staphylococcus aureus
[4] = tested on: Streptococcus pneumoniae; experiment: In vivo antibacterial activity of ATCC 6303 strain of Gram positive bacteria Streptococcus pneumoniae (95% confidence interval)
[5] = tested on: Staphylococcus aureus; experiment: In vitro antibacterial activity of 6538P strain of Gram positive bacteria Staphylococcus aureus
[6] = tested on: Streptococcus pneumoniae; experiment: In vitro antibacterial activity of 5979 strain of Gram positive bacteria Streptococcus pneumoniae
[7] = tested on: Haemophilus influenzae; experiment: In vitro antibacterial activity of DILL strain of Gram negative bacteria Haemophilus influenzae
[8] = tested on: Streptococcus pyogenes; experiment: In vitro antibacterial activity of 930 strain of Gram positive bacteria Streptococcus pyogenes
[9] = tested on: Streptococcus pneumoniae; experiment: In vitro antibacterial activity of ATCC 6303 strain of Gram positive bacteria Streptococcus pneumoniae
[10] = tested on: Streptococcus pneumoniae; experiment: In vitro antibacterial activity of 5649 strain of Gram positive bacteria Streptococcus pneumoniae
[11] = tested on: Streptococcus pyogenes; experiment: In vitro antibacterial activity of EES61 strain of Gram positive bacteria Streptococcus pyogenes
[12] = tested on: Staphylococcus aureus; experiment: In vitro antibacterial activity of A5177 strain of Gram positive bacteria Staphylococcus aureus
[13] = tested on: Staphylococcus aureus; experiment: In vitro antibacterial activity of A-5278 strain of Gram positive bacteria Staphylococcus aureus
[14] = tested on: Streptococcus pyogenes; experiment: In vitro antibacterial activity of PIU2584 strain of Gram positive bacteria Streptococcus pyogenes

Compound	ED50 [1]	MIC [2]	MIC [3]	ED50 [4]	MIC [5]	MIC [6]	MIC [7]	MIC [8]	MIC [9]	MIC [10]	MIC [11]	MIC [12]	MIC [13]	MIC [14]
CC[C@H]1OC(=O)[C@H](C)[C@@H](O[C@H]2C[C@@](C)(OC)[C@@H](O)[C@H](C)O2)[C@H](C)[C@@H](O[C@@H]2O[C@H](C)C[C@H](N(C)C)[C@H]2O)[C@](C)(OC)C[C@@H](C)C(=O)[C@H](C)[C@@H](O)[C@]1(C)O [CLARITHROMYCIN]	22.4 mg/kg/day	0.03 µg/mL (≈ 0.0401 µM)	0.39 µg/mL (≈ 0.521 µM)	27.2 mg/kg/day										
CC[C@H]1OC(=O)/C(C)=C/[C@H](C)[C@@H](O[C@@H]2O[C@H](C)C[C@H](N(C)C)[C@H]2O)[C@@](C)(OC)C[C@@H](C)C(=O)[C@H](C)[C@H]2N(NC/C=C/c3ccc(N)cc3)C(=O)O[C@]12C	39.9 mg/kg/day	0.03 µg/mL (≈ 0.0404 µM)	0.2 µg/mL (≈ 0.269 µM)	9.9 mg/kg/day	0.2 µg/mL (≈ 0.269 µM)	> 128 µg/mL	2 µg/mL (≈ 2.69 µM)	> 128 µg/mL	0.03 µg/mL (≈ 0.0404 µM)	1 µg/mL (≈ 1.35 µM)	0.03 µg/mL (≈ 0.0404 µM)	0.2 µg/mL (≈ 0.269 µM)	> 100 µg/mL	1 µg/mL (≈ 1.35 µM)
CC[C@H]1OC(=O)/C(C)=C/[C@H](C)[C@@H](O[C@@H]2O[C@H](C)C[C@H](N(C)C)[C@H]2O)[C@@](C)(OC)C[C@@H](C)C(=O)[C@H](C)[C@H]2N(NCCCn3nc4ccccc4n3)C(=O)O[C@]12C					0.2 µg/mL (≈ 0.259 µM)	> 128 µg/mL	8 µg/mL (≈ 10.4 µM)	128 µg/mL (≈ 166 µM)	0.004 µg/mL (≈ 0.00519 µM)	0.5 µg/mL (≈ 0.649 µM)	0.004 µg/mL (≈ 0.00519 µM)	0.2 µg/mL (≈ 0.259 µM)	> 100 µg/mL	1 µg/mL (≈ 1.3 µM)
CC[C@H]1OC(=O)/C(C)=C/[C@H](C)[C@@H](O[C@@H]2O[C@H](C)C[C@H](N(C)C)[C@H]2O)[C@@](C)(OC)C[C@@H](C)C(=O)[C@H](C)[C@H]2N(NCc3cccc(O)c3)C(=O)O[C@]12C					0.2 µg/mL (≈ 0.279 µM)	> 128 µg/mL	4 µg/mL (≈ 5.57 µM)	> 128 µg/mL	0.03 µg/mL (≈ 0.0418 µM)	1 µg/mL (≈ 1.39 µM)	0.03 µg/mL (≈ 0.0418 µM)	0.1 µg/mL (≈ 0.139 µM)	> 100 µg/mL	0.5 µg/mL (≈ 0.696 µM)
CC[C@H]1OC(=O)/C(C)=C/[C@H](C)[C@@H](O[C@@H]2O[C@H](C)C[C@H](N(C)C)[C@H]2O)[C@@](C)(OC)C[C@@H](C)C(=O)[C@H](C)[C@H]2N(NCc3ccc([N+](=O)[O-])cc3)C(=O)O[C@]12C					0.05 µg/mL (≈ 0.0669 µM)	> 128 µg/mL	8 µg/mL (≈ 10.7 µM)	128 µg/mL (≈ 171 µM)	0.03 µg/mL (≈ 0.0402 µM)	1 µg/mL (≈ 1.34 µM)	0.03 µg/mL (≈ 0.0402 µM)	0.05 µg/mL (≈ 0.0669 µM)	> 100 µg/mL	1 µg/mL (≈ 1.34 µM)
CC[C@H]1OC(=O)/C(C)=C/[C@H](C)[C@@H](O[C@@H]2O[C@H](C)C[C@H](N(C)C)[C@H]2O)[C@@](C)(OC)C[C@@H](C)C(=O)[C@H](C)[C@H]2N(NCCCc3cccc(Cl)c3)C(=O)O[C@]12C					0.39 µg/mL (≈ 0.51 µM)	32 µg/mL (≈ 41.9 µM)	32 µg/mL (≈ 41.9 µM)	16 µg/mL (≈ 20.9 µM)	0.25 µg/mL (≈ 0.327 µM)	2 µg/mL (≈ 2.62 µM)	0.25 µg/mL (≈ 0.327 µM)	0.39 µg/mL (≈ 0.51 µM)	50 µg/mL (≈ 65.4 µM)	1 µg/mL (≈ 1.31 µM)
CC[C@H]1OC(=O)/C(C)=C/[C@H](C)[C@@H](O[C@@H]2O[C@H](C)C[C@H](N(C)C)[C@H]2O)[C@@](C)(OC)C[C@@H](C)C(=O)[C@H](C)[C@H]2N(NC/C=C/c3ccc(NC(C)=O)cc3)C(=O)O[C@]12C					0.2 µg/mL (≈ 0.255 µM)	> 64 µg/mL	4 µg/mL (≈ 5.1 µM)	> 64 µg/mL	0.03 µg/mL (≈ 0.0382 µM)	1 µg/mL (≈ 1.27 µM)	0.06 µg/mL (≈ 0.0764 µM)	0.2 µg/mL (≈ 0.255 µM)	> 100 µg/mL	1 µg/mL (≈ 1.27 µM)
CC[C@H]1OC(=O)/C(C)=C/[C@H](C)[C@@H](O[C@@H]2O[C@H](C)C[C@H](N(C)C)[C@H]2O)[C@@](C)(OC)C[C@@H](C)C(=O)[C@H](C)[C@H]2N(NCc3cccnc3)C(=O)O[C@]12C					0.39 µg/mL (≈ 0.555 µM)	> 64 µg/mL	8 µg/mL (≈ 11.4 µM)	> 64 µg/mL	0.06 µg/mL (≈ 0.0854 µM)	1 µg/mL (≈ 1.42 µM)	0.03 µg/mL (≈ 0.0427 µM)	0.39 µg/mL (≈ 0.555 µM)	> 100 µg/mL	1 µg/mL (≈ 1.42 µM)
CC[C@H]1OC(=O)/C(C)=C/[C@H](C)[C@@H](O[C@@H]2O[C@H](C)C[C@H](N(C)C)[C@H]2O)[C@@](C)(OC)C[C@@H](C)C(=O)[C@H](C)[C@H]2N(NCc3ccc(C#N)cc3)C(=O)O[C@]12C					0.05 µg/mL (≈ 0.0688 µM)	> 128 µg/mL	4 µg/mL (≈ 5.5 µM)	128 µg/mL (≈ 176 µM)	0.03 µg/mL (≈ 0.0413 µM)	0.5 µg/mL (≈ 0.688 µM)	0.015 µg/mL (≈ 0.0206 µM)	0.02 µg/mL (≈ 0.0275 µM)	> 100 µg/mL	0.5 µg/mL (≈ 0.688 µM)
CC[C@H]1OC(=O)/C(C)=C/[C@H](C)[C@@H](O[C@@H]2O[C@H](C)C[C@H](N(C)C)[C@H]2O)[C@@](C)(OC)C[C@@H](C)C(=O)[C@H](C)[C@H]2N(NCCCc3ccc(F)cc3)C(=O)O[C@]12C					0.39 µg/mL (≈ 0.521 µM)	64 µg/mL (≈ 85.6 µM)	16 µg/mL (≈ 21.4 µM)	64 µg/mL (≈ 85.6 µM)	0.06 µg/mL (≈ 0.0802 µM)	1 µg/mL (≈ 1.34 µM)	0.03 µg/mL (≈ 0.0401 µM)	0.2 µg/mL (≈ 0.267 µM)	50 µg/mL (≈ 66.8 µM)	1 µg/mL (≈ 1.34 µM)
CC[C@H]1OC(=O)/C(C)=C/[C@H](C)[C@@H](O[C@@H]2O[C@H](C)C[C@H](N(C)C)[C@H]2O)[C@@](C)(OC)C[C@@H](C)C(=O)[C@H](C)[C@H]2N(NCCCc3ccccc3)C(=O)O[C@]12C					0.1 µg/mL (≈ 0.137 µM)	64 µg/mL (≈ 87.7 µM)	16 µg/mL (≈ 21.9 µM)	32 µg/mL (≈ 43.8 µM)	0.125 µg/mL (≈ 0.171 µM)	2 µg/mL (≈ 2.74 µM)	0.06 µg/mL (≈ 0.0822 µM)	0.1 µg/mL (≈ 0.137 µM)	50 µg/mL (≈ 68.5 µM)	1 µg/mL (≈ 1.37 µM)
CC[C@H]1OC(=O)/C(C)=C/[C@H](C)[C@@H](O[C@@H]2O[C@H](C)C[C@H](N(C)C)[C@H]2O)[C@@](C)(OC)C[C@@H](C)C(=O)[C@H](C)[C@H]2N(NCc3ccc(N(C)C)c4ccccc34)C(=O)O[C@]12C					3.1 µg/mL (≈ 3.9 µM)	32 µg/mL (≈ 40.3 µM)	16 µg/mL (≈ 20.1 µM)	16 µg/mL (≈ 20.1 µM)	0.5 µg/mL (≈ 0.629 µM)	2 µg/mL (≈ 2.52 µM)	0.25 µg/mL (≈ 0.314 µM)	3.1 µg/mL (≈ 3.9 µM)	100 µg/mL (≈ 126 µM)	2 µg/mL (≈ 2.52 µM)
CC[C@H]1OC(=O)/C(C)=C/[C@H](C)[C@@H](O[C@@H]2O[C@H](C)C[C@H](N(C)C)[C@H]2O)[C@@](C)(OC)C[C@@H](C)C(=O)[C@H](C)[C@H]2N(NCCCc3ccc(Cl)cc3Cl)C(=O)O[C@]12C					0.39 µg/mL (≈ 0.488 µM)	8 µg/mL (≈ 10 µM)	16 µg/mL (≈ 20 µM)	8 µg/mL (≈ 10 µM)	0.125 µg/mL (≈ 0.156 µM)	2 µg/mL (≈ 2.5 µM)	0.06 µg/mL (≈ 0.0751 µM)	0.39 µg/mL (≈ 0.488 µM)	25 µg/mL (≈ 31.3 µM)	1 µg/mL (≈ 1.25 µM)
CC[C@H]1OC(=O)/C(C)=C/[C@H](C)[C@@H](O[C@@H]2O[C@H](C)C[C@H](N(C)C)[C@H]2O)[C@@](C)(OC)C[C@@H](C)C(=O)[C@H](C)[C@H]2N(NCCCc3ccccc3Cl)C(=O)O[C@]12C					0.2 µg/mL (≈ 0.262 µM)	32 µg/mL (≈ 41.9 µM)	16 µg/mL (≈ 20.9 µM)	16 µg/mL (≈ 20.9 µM)	0.125 µg/mL (≈ 0.164 µM)	1 µg/mL (≈ 1.31 µM)	0.03 µg/mL (≈ 0.0392 µM)	0.2 µg/mL (≈ 0.262 µM)	50 µg/mL (≈ 65.4 µM)	1 µg/mL (≈ 1.31 µM)
CC[C@H]1OC(=O)/C(C)=C/[C@H](C)[C@@H](O[C@@H]2O[C@H](C)C[C@H](N(C)C)[C@H]2O)[C@@](C)(OC)C[C@@H](C)C(=O)[C@H](C)[C@H]2N(NCc3ccc(O)cc3)C(=O)O[C@]12C					0.2 µg/mL (≈ 0.279 µM)	> 128 µg/mL	4 µg/mL (≈ 5.57 µM)	> 128 µg/mL	0.03 µg/mL (≈ 0.0418 µM)	1 µg/mL (≈ 1.39 µM)	0.03 µg/mL (≈ 0.0418 µM)	0.2 µg/mL (≈ 0.279 µM)	> 100 µg/mL	1 µg/mL (≈ 1.39 µM)
